Source: patent US9132198B2, “Mitochondrial penetrating peptides as carriers for anticancer compounds” (priority 2011, dated 2015)
Entries after “also recorded” stand apart in the source; their conditions may differ. Non-standard residues stand in square brackets, D forms with d. Residues, ends and D or L forms follow the SMILES beside them. *: point of attachment. Chlorambucil = O=C(CCCc1ccc(N(CCCl)CCCl)cc1)*; Cha = N[C@@H](CC1CCCCC1)C(=O)O

Key:
[1] = tested on: HeLa cells; test: Analysis of toxicity, CCK-8 viability, HeLa; type: cell-based
[2] = tested on: HeLa cells; test: Analysis of mitochondrial superoxide levels (MitoSOX, flow cytometry); type: cell-based; details: 1 hour treatment
Method: HeLa cells were plated at 100,000 per well of a 24-well plate 24 hours prior to experiment and treated with Cbl or MPP-Cbl in OPTI-MEM (Invitrogen, Carlsbad) for 1 hour. Media was removed and cells were incubated with MitoSox (Invitrogen, Carlsbad) according to manufacturer's instructions. Cells were washed with PBS, trypsinized and analyzed via flow cytometry with FACSCanto (BD, Franklin Lakes).

[3] = tested on: HeLa cells; test: Mitochondrial membrane potential (JC-1, flow cytometry); type: cell-based; details: 1 hour treatment
Method: HeLa cells were seeded at 50,000 cells per well 24 hours prior to experiment. CLL patient samples, PBSCs and healthy donor B cells were seeded at 200,000 cells per well in triplicate in a 24-well plate in Iscove's media. Cells were then incubated with 2 μM of 5,5′,6,6′-tetrachloro-1,1′,3,3′-tetraethylbenzimidazolylcarbocyanine iodide (JC-1, Invitrogen, Carlsbad) for 20 minutes at 37° C. Each sample was then washed twice with 1 mL PBS and resuspended in 300 μL PBS prior to being read on a BD FACS Canto. Samples were excited at 488 nm and emission was collected at 526 nm (green) and 595 nm (red). To obtain the mitochondrial membrane potential (red/green), emission from the red channel was divided by emission from the green channel. For membrane depolarization studies, HeLa cells were treated with Cbl or MPP-Cbl for 1 hour in OPTI-MEM (Invitrogen, Carlsbad) prior to incubation with JC-1. Cells were washed with PBS, trypsinized and analyzed as above.

[4] = Colorimetric alkylation assay; type: biochemical; details: absorbance of 4-NBP upon alkylation
Method: Alkylation was tested using 4-(4-Nitrobenzyl)pyridine (4-NBP) (Thomas, et al., 1992). Briefly, compound (200-450 μM) was incubated with 4-NBP (0.7% w/vol) in a buffer containing 85 mM triethanolamine (pH 7.2) and 43% acetone. Reactions were incubated at 37° C. for 30-120 min. Reactions were terminated by freezing in a dry ice/ethanol bath. To develop samples, […] ethyl acetate and 25 μl 5N NaOH were added followed by vortexing. Absorbance of organic ethyl acetate was read at 540 nm.

[5] = tested on: pBR322DNA; test: Crosslinking of isolated DNA; type: biochemical; details: 2-200 μM
Method: Crosslinking of isolated pBR322DNA was determined from a modification of a published method.^30 Briefly, pBR322DNA was incubated with compounds at concentrations and times indicated in 25 mM triethanolamine (pH 7.2) and 1 mM EDTA. Reactions were terminated by the addition of 50 mM EDTA and 150 μg/ml excess short oligonucleotide DNA. Samples were denatured at 95° C. in denaturation buffer (30% DMSO, 1 mM EDTA, bromophenol blue, xylene cyanol, and 0.4% SDS) for 3 min and flash frozen in a dry ice/ethanol bath. Electrophoresis was carried out in 0.8% agarose in TAE buffer and stained post-run with ethidium bromide.

[6] = tested on: 17.7 kb nuclear DNA segment (β-globin gene) in HL60 cells; test: DNA lesion frequency by quantitative PCR, nuclear DNA; type: cell-based; details: HL60, Cbl 150 μM or mt-Cbl 3 μM, 2 hr
Method: (§1) A total of 5×10^6 HL60 cells were treated with Cbl (150 μM) or mt-Cbl (3 μM) for 2 hr. DNA was isolated from frozen cell pellets with the QIAGEN Genomic Tip and Genomic DNA Buffer Set Kit (QIAGEN) and quantified using the PicoGreen dye (Invitrogen). Quantitative amplification of the 8.9 kb mitochondrial segment and the 17.7 kb β-globin target sequence was performed using the GeneAmp XL PCR kit (Perkin-Elmer) as described previously^31. Lesion frequency at a given dose, D, was calculated as D=−In AD/AC, where AD is the amplification at the dose, and AC is the level of amplification in nondamaged controls.

[7] = tested on: 8.9 kb mitochondrial DNA segment in HL60 cells; test: DNA lesion frequency by quantitative PCR, mitochondrial DNA; type: cell-based; details: HL60, Cbl 150 μM or mt-Cbl 3 μM, 2 hr
Method: as §1

[8] = tested on: HL60 cells; test: Quantitative real-time PCR array of DNA damage signaling genes; type: cell-based, human; details: for DDIT3/GADD153 change in expression: vs untreated cells
[9] = tested on: HL60 cells; test: Western blots of GADD45G pathway effector proteins (p38, JNK); type: cell-based; details: HL60, immunoblotting
Method: Leukemia cells were cultured as above and were washed twice with PBS prior to lysis (10 mM Tris, 200 mM NaCl, 1 mM EDTA (pH 7.4), 1 mM PMSF, 0.5% NP-40, 1% Triton X-100, 1× Protease Inhibitor Cocktail (Bioshop, Burlington, ON)) at 4° C., 30 min. Cells were then centrifuged at 1,200 rcf, 4° C., 5 min and protein levels were quantified using bicinchoninic acid (BCA) assay (Pierce, Rockford). 15 μg of total protein was diluted in 8× sample buffer and heated to 42° C. for 5 min prior to loading on 15% gel. Gels were run at 100 V for 1 h, and then proteins were transferred onto nitrocellulose membrane at 100 V for 40 min. Membranes were blocked with 5% skim milk for 1 hour and then probed with primary antibody according to manufacturer's instructions (1:500 BclXL antibody [Abcam, Cambridge, Mass.], 1:2000 β-actin antibody [Abcam], 1:1000 phospho INK [Abcam], 1:1000 phospho p38 [Abcam], 1:1000 GADD45G [Santa Cruz Biotechnology, Santa Cruz, Calif.], 1:1000 PPP1R15A [Santa Cruz Biotechnology], 1:1000 DNA Ligase III [Santa Cruz Biotechnology], 1:1000 p21 [Santa Cruz Biotechnology], and 1:1000 DDIT3 [Cell Signaling Technology, Beverly, Mass.]). Membranes were then washed and incubated with 1:5000 donkey anti-mouse or goat anti-rabbit IgG-HRP secondary antibody for 1 hr prior to ECL chemiluminescence detection (GE Amersham).

[10] = tested on: A2780 wildtype cells; test: Annexin V apoptosis assay, A2780 wild-type; type: cell-based; details: A2780 wild-type line
[11] = tested on: A2780 Cbl-resistant cells; test: Annexin V apoptosis assay, A2780 Cbl-resistant; type: cell-based; details: A2780 Cbl-resistant line
[12] = tested on: red blood cells (healthy donors); test: Hemolysis assay; type: cell-based, human; details: RBCs of healthy donors, at concentrations used (LC25, LC50)
Method: Red blood cells obtained during Ficoll separation of healthy donor peripheral blood was used for this assay. Cells were washed with PBS until the supernatant was clear. Peptide solutions were made in Iscove's media and a 1:2 dilution was made across a 96-well plate. To each well, 2 μl, of red blood cells were added, mixed and then incubated for 1 hour at 37° C. with 5% CO2. For 100% lysis, 0.1% Triton X-100 was added to three wells and for 0% lysis, cells from three wells without peptide were used. Plates were spun at 1000×g for 10 min and 50 μL of supernatant was then transferred to a new plate, mixed with 50 μL of PBS and read at 415 nm.

[13] = tested on: CLL patient cells; test: Annexin V/Sytox Red viability of CLL patient cells versus healthy donor cells; type: cell-based, human; details: LC25 and LC50; PBSCs and mononuclear cells of healthy donors as comparison
[14] = tested on: HL60 cells; test: Analysis of toxicity, CCK-8 viability, leukemia panel: HL60; details: for LC25 dose: HL60 cells
[15] = tested on: CLL patient cells; test: Peptide uptake (flow cytometry); type: cell-based, human; details: 5 μM thiazole orange-labeled peptide, 15 min; CLL cells vs PBSCs and mononuclear cells
Method: CLL patient samples, PBSCs and healthy donor B cells were seeded at 200,000 cells per well in triplicate in a 24-well plate in Iscove's media. Cells were then incubated with 5 μM thiazole orange-labeled peptide for 15 min, washed with PBS and analyzed on FACSCanto (BD, Franklin Lakes) to determine relative intracellular peptide concentrations.

[16] = tested on: M2 (OCI-M2) cells; test: Analysis of toxicity, CCK-8 viability, leukemia panel: M2
[17] = tested on: K562 cells; test: Analysis of toxicity, CCK-8 viability, leukemia panel: K562
[18] = tested on: LY17 cells; test: Analysis of toxicity, CCK-8 viability, leukemia panel: LY17; details: read-out: LC50
[19] = tested on: U937 cells; test: Analysis of toxicity, CCK-8 viability, leukemia panel: U937; details: Homo sapiens, U-937, read-out: LC50
[20] = tested on: AML2 (OCI-AML2) cells; test: Analysis of toxicity, CCK-8 viability, leukemia panel: AML2; details: Homo sapiens, OCI-AML2, read-out: LC50
[21] = tested on: DAUDI cells; test: Analysis of toxicity, CCK-8 viability, leukemia panel: DAUDI; details: Homo sapiens, read-out: LC50
[22] = immunogold TEM, mouse liver mitochondria
Method: Mitochondria were isolated from fresh mouse liver as previously described^1. Functionality was confirmed using respirometry. The isolated organelles were used only when the levels of oxygen consumption in state III respiration (presence of ADP) were >4 fold greater than in state II respiration, indicating well-coupled mitochondria. Mitochondrial protein concentration was determined by BCA assay (Sigma). […] Cold PBS was added and mitochondria were pelleted by centrifugation. The pellet was fixed in 1% glutaraldehyde in PBS for 90 min at room temperature, washed with PBS, then fixed with 1% osmium tetroxide for 2 hr at 4° C. The pellets were dehydrated using graded ethanol, followed by stepwise infiltration with propylene oxide and Epon-Araldite resin. The pellets were cured in resin for 48 hr at 60° C. The blocks were sectioned to 60 nm and the sections adhered to nickel grids for 30 min at 60° C. The grids were floated on saturated aqueous sodium metaperiodate for an hour at room temperature, washed, then blocked with 1% BSA, and labeled with Anti-biotin (Jackson Immunolabs) followed by Protein A-gold (Aurion, 10 nm). The grids were rinsed with water and stained with 2% uranyl acetate for 5 minutes. To quantitate gold labeling, 200 gold particles (for more densely labeled samples) or 400 mitochondria (for less densely labeled samples) were counted for each counting event. […]

[23] = HL60, LC25 dose, greater with mt-Cbl relative to Cbl alone

## CC(=O)N[C@@H](CC1CCCCC1)C(=O)N[C@H](CCCNC(=N)N)C(=O)N[C@@H](CC1CCCCC1)C(=O)N[C@H](CCCNC(=N)N)C(=O)N[C@@H](CC1CCCCC1)C(=O)N[C@H](CCCNC(=N)N)C(=O)N[C@H](CCCCNC(=O)CCCc1ccc(N(CCCl)CCCl)cc1)C(N)=O [MPP-Cbl, Ac-FxrFxrFxrk-Cbl] (Ac-[Cha][dR][Cha][dR][Cha][dR][dK](Chlorambucil)-NH2)
[1]; cell viability assay, 24 hours
  increase in potency compared to Cbl: 100 fold
[2]
  increase of mitochondrial superoxide levels: noted upon MPP-Cbl treatment
[3]
  depolarization of mitochondrial membrane: noted upon MPP-Cbl treatment
[4]
  reduction of alkylating ability compared to Cbl alone: approximately two fold
[5]
  DNA crosslink formation: concentration-dependent crosslink formation
[6]
  damage of nuclear DNA: minimal effect on the nuclear genome
[7]
  damage of mitochondrial DNA: significant reduction of mitochondrial DNA amplification
[8]; HL60, LC25 dose
  p21 expression: overexpressed
  DDIT3/GADD153 change in expression: no change
[8]; [23]
  GADD45G upregulation: 15 fold
  PPP1R15A/GADD34 upregulation: 4 fold
[8]; HL60, LC50 dose, 1 hr
  Ligase III increase in expression: this was detected
[9]
  activation of p38 or JNK pathways: activating JNK
[10]
  concentration inducing cell death: 9 µM
[11]; value comparable to wild-type
  concentration inducing cell death: 9 µM
[12]
  hemolysis: nominal hemolysis levels; also recorded: minimal
[13]
  selective toxicity to CLL patient cells versus healthy donor cells: more selectively toxic to CLL patient samples cells
[14]
  LC25 dose: 3 µM

## Ac-FxrFxrFxr [MPP]
[1]; concentration range tested
  toxicity: did not show appreciable toxicity

## TO-FxrFxrFxr [to-MPP]
[15]
  peptide uptake: higher levels of peptide uptake in CLL cells

## O=C(O)CCCc1ccc(N(CCCl)CCCl)cc1 [Cbl, chlorambucil]
[3]
  depolarization of mitochondrial membrane: not with Cbl
[5]
  DNA crosslink formation: concentration-dependent crosslink formation
[6]
  damage of nuclear DNA: primarily damaged nuclear DNA
[7]
  damage of mitochondrial DNA: very few mitochondrial lesions
[8]; HL60, LC25 dose
  p21 expression: overexpressed
  DDIT3/GADD153 change in expression: 5 fold
[9]
  activation of p38 or JNK pathways: activating p38
[10]
  induction of cell death: able to induce cell death
[11]; even at 100 μM
  toxicity: insignificant
[12]
  hemolysis: minimal
[13]
  selective toxicity to CLL patient cells versus healthy donor cells: more selectively toxic to CLL patient samples cells
[16]; OCI-M2, read-out: LC50
  CC50: 311 ± 24 µM
[16]; OCI-M2 cells
  resistance to Cbl relative to rest of the cohort: approximately 10 fold
[17]; Homo sapiens, K562, read-out: LC50
  CC50: 306 ± 26 µM
[17]; K562 cells
  resistance to Cbl relative to rest of the cohort: approximately 10 fold
[18]
  CC50: 55 ± 7 µM
[14]
  LC25 dose: 17 µM
[14]; Homo sapiens, HL-60
  EC50: 34 µM
[14]; Homo sapiens, HL-60, read-out: LC50
  CC50: 34 ± 6 µM
[19]
  CC50: 34 ± 5 µM
[20]
  CC50: 28 ± 3 µM
[21]
  CC50: 27 ± 7 µM

## Biotin-FxrFxrFxr [Biotin-MPP]
[22]
  localization within isolated mitochondria: predominantly matrix localization
